Experiment: Assay 2. Stability in Simulated Intestinal Fluid (SIF)
Format: in vitro ADME
Conditions: SIF pH 6.7 with pancreatin, 1 μM, 37° C.
Method: Assay 2. Stability of acylated active agents in Simulated Intestinal Fluid (SIF). This assay was used to assess the stability of an acylated active agent in a small intestine. Phosphate buffer was prepared by dissolving 0.42 g of sodium hydroxide pellets and 3.95 g of monobasic sodium phosphate monohydrate and 6.19 g of sodium chloride in ultrapure water (MilliQ®, Millipore Sigma, Darmstadt, Germany). The pH was adjusted to 6.7 using aq. HCl and aq. NaOH, as necessary, and the solution was diluted with ultrapure water to produce 1 L of the pH 6.7 buffer. 112 mg FaSSIF powder (Biorelevant™, London, UK) was dissolved in 50 mL of the pH 6.7 buffer. 2 to 3 mL of the resulting solution were then added to 500 mg pancreatin (Millipore Sigma, Darmstadt, Germany). The resulting mixture was agitated by finger tapping the vessel containing the mixture until milky suspension formed. At this time, the remainder of the 50 mL FaSSiF/pH 6.7 buffer solution was added. The resulting suspension was flipped upside down 10 times to produce SIF, which was used fresh. Test compounds were dissolved in DMSO stock to 1 mM. An aliquot of the DMSO stock solution was removed and diluted in the SIF media in 15 mL falcon tubes to produce a mixture with a tested compound concentration of 1 μM. A 1 mL aliquot was immediately removed and diluted once with 1 volume of acetonitrile for T0 timepoint. The mixture was sealed and agitated at 37° C. in an incubator. Aliquots (1 mL) were removed at regular intervals and immediately quenched by the addition of 1 volume of acetonitrile. The resulting samples were analyzed by LC/MS to determine degradation rates.

Which “Assay 2 (SIF) (% @ Remaining 4 hours)” value does the source give for CC(=O)Oc1ccc(-c2oc3cc(OC(C)=O)cc(OC(C)=O)c3c(=O)c2OC(C)=O)cc1 [Compound 8, [4-(3,5,7-triacetoxy-4-oxo-chromen-2-yl)phenyl] acetate] here?
The value was “A (<25% of the tested compound remaining)”.

Which “Assay 2 (SIF) (% @ Remaining 4 hours)” value does the source give for CCCC(=O)Oc1ccc(/N=N/c2ccc(OC(=O)CCC)c(C(=O)O)c2)cc1C(=O)O [Compound 17, 2-butanoyloxy-5-[(E)-(4-butanoyloxy-3-carboxy-phenyl)azo]benzoic acid] here?
Its value is “A (<25% of the tested compound remaining)”.

Which “Assay 2 (SIF) (% @ Remaining 4 hours)” value does the source give for CCCC(=O)O[C@H]1[C@@H](Oc2ccccc2C(=O)O)OC[C@@H](OC(=O)CCC)[C@H]1OC(=O)CCC [Compound 42, 2-(((3R,4R,5R)-3,4,5-tris(butyryloxy)tetrahydro-2H-pyran-2-yl)oxy)benzoic acid] here?
The value was “C (>75% of the tested compound remaining)”.

For CCCC(=O)O[C@H]1O[C@@H](C)[C@H](OC(=O)CCC)[C@@H](OC(=O)CCC)[C@H]1OC(=O)CCC [Compound 119, (2R,3R,4R,5S,6S)-3,4,5-tris(butanoyloxy)-6-methyloxan-2-yl butanoate], which “Assay 2 (SIF) (% @ Remaining 4 hours)” value is on record?
Its value is “A (<25% of the tested compound remaining)”.

For CCCC(=O)O[C@@H]1O[C@@H](C)[C@H](OC(=O)CCC)[C@@H](OC(=O)CCC)[C@H]1OC(=O)CCC [Compound 120, (2S,3R,4R,5S,6S)-3,4,5-tris(butanoyloxy)-6-methyloxan-2-yl butanoate], which “Assay 2 (SIF) (% @ Remaining 4 hours)” value is on record?
The value was “A (<25% of the tested compound remaining)”.

For C[C@@H]1O[C@H](OC(=O)Cc2c[nH]c3ccccc23)[C@H](OC(=O)Cc2c[nH]c3ccccc23)[C@H](OC(=O)Cc2c[nH]c3ccccc23)[C@H]1OC(=O)Cc1c[nH]c2ccccc12 [Compound 121, (2R,3R,4R,5S,6S)-3,4,5-tris({[2-(1H-indol-3-yl)acetyl]oxy})-6-methyloxan-2-yl 2-(1H-indol-3-yl)acetate], which “Assay 2 (SIF) (% @ Remaining 4 hours)” value is on record?
The value was “A (<25% of the tested compound remaining)”.

For C[C@@H]1O[C@@H](OC(=O)Cc2c[nH]c3ccccc23)[C@H](OC(=O)Cc2c[nH]c3ccccc23)[C@H](OC(=O)Cc2c[nH]c3ccccc23)[C@H]1OC(=O)Cc1c[nH]c2ccccc12 [Compound 122, (2S,3R,4R,5S,6S)-3,4,5-tris({[2-(1H-indol-3-yl)acetyl]oxy})-6-methyloxan-2-yl 2-(1H-indol-3-yl)acetate], which “Assay 2 (SIF) (% @ Remaining 4 hours)” value is on record?
The value was “A (<25% of the tested compound remaining)”.

Which “Assay 2 (SIF) (% @ Remaining 4 hours)” value does the source give for CCCC(=O)OCC1(OC(=O)CCC)OC[C@@H](OC(=O)CCC)[C@H](OC(=O)CCC)[C@@H]1OC(=O)CCC (stereo partly drawn) [Compound 131, [(3S,4S,5R)-2,3,4,5-tetrakis(butanoyloxy)oxan-2-yl]methyl butanoate] here?
Its value is “A (<25% of the tested compound remaining)”.

For CCCC(=O)O[C@@H]1[C@@H](OC(=O)CCC)[C@H](C)O[C@@H](O)[C@@H]1OC(=O)CCC [Compound 141, (2S,3S,4R,5R)-4,5-bis(butanoyloxy)-6-hydroxy-2-methyloxan-3-yl butanoate], which “Assay 2 (SIF) (% @ Remaining 4 hours)” value is on record?
The value was “C (>75% of the tested compound remaining)”.

For CCCC(=O)O[C@H]1OC[C@@H](OC(=O)CCC)[C@H](OC(=O)CCC)[C@H]1OC(=O)CCC [Compound 159, (2R,3R,4S,5R)-3,4,5-tris(butanoyloxy)oxan-2-yl butanoate], which “Assay 2 (SIF) (% @ Remaining 4 hours)” value is on record?
Its value is “C (>75% of the tested compound remaining)”.

For CCCC(=O)Oc1ccc([C@@H]2CC(=O)c3c(OC(=O)CCC)cc(OC(=O)CCC)cc3O2)cc1 [Compound 175, (S)-2-(4-(butyryloxy)phenyl)-4-oxochromane-5,7-diyl dibutyrate], which “Assay 2 (SIF) (% @ Remaining 4 hours)” value is on record?
The value was “A (<25% of the tested compound remaining)”.

With CC(=O)Oc1ccc([C@@H]2CC(=O)c3c(OC(C)=O)cc(OC(C)=O)cc3O2)cc1 [Compound 176, (S)-2-(4-acetoxyphenyl)-4-oxochromane-5,7-diyl diacetate] as the compound, how does the “Assay 2 (SIF) (% @ Remaining 4 hours)” value read?
The value was “A (<25% of the tested compound remaining)”.

With CC(=O)Oc1cc(OC(C)=O)c2c(=O)c(OC(C)=O)c(-c3ccc(OC(C)=O)c(OC(C)=O)c3)oc2c1 [Compound 182, [2-acetoxy-4-(3,5,7-triacetoxy-4-oxo-chromen-2-yl)phenyl] acetate] as the compound, how does the “Assay 2 (SIF) (% @ Remaining 4 hours)” value read?
The value was “A (<25% of the tested compound remaining)”.

With CCCC(=O)O[C@@H]1[C@@H](OC(=O)CCC)[C@@H](Oc2ccc(N)cc2C(=O)O)OC[C@H]1OC(=O)CCC [Compound 184, 5-amino-2-[(2R,3R,4S,5R)-3,4,5-tri(butanoyloxy)tetrahydropyran-2-yl]oxy-benzoic acid] as the compound, how does the “Assay 2 (SIF) (% @ Remaining 4 hours)” value read?
The value was “B (25-75% of the tested compound remaining)”.

Which “Assay 2 (SIF) (% @ Remaining 4 hours)” value does the source give for CCCC(=O)Nc1ccc(O[C@@H]2OC[C@@H](OC(=O)CCC)[C@H](OC(=O)CCC)[C@H]2OC(=O)CCC)c(C(=O)O)c1 [Compound 188, 5-butanamido-2-{[(2S,3R,4S,5R)-3,4,5-tris(butanoyloxy)oxan-2-yl]oxy}benzoic acid] here?
The value was “A (<25% of the tested compound remaining)”.

With CC(=O)Oc1ccc2c(c1)oc(=O)c1cc(OC(C)=O)c(OC(C)=O)cc12 [Compound 203, 6-oxo-6H-benzo[c]chromene-3,8,9-triyl triacetate] as the compound, how does the “Assay 2 (SIF) (% @ Remaining 4 hours)” value read?
The value was “B (25-75% of the tested compound remaining)”.

Experiment: Assay 1. Stability in Simulated Gastric Fluid (SGF)
Format: in vitro ADME
Conditions: SGF pH 1.6 with pepsin, 1 μM, 37° C.
Method: Assay 1. Stability of acylated active agents in Simulated Gastric Fluid (SGF). This assay was used to assess the stability of an acylated active agent in a stomach.
Medium was prepared by dissolving 2 g of sodium chloride in 0.6 L in ultrapure water (MilliQ®, Millipore Sigma, Darmstadt, Germany). The pH was adjusted to 1.6 with 1N hydrochloric acid, and the volume was then adjusted to 1 L with purified water.
60 mg FaSSIF powder (Biorelevant™, London, UK) were dissolved in 500 mL buffer (above). Pepsin was added (0.1 mg/mL) (Millipore Sigma, Darmstadt, Germany), and the solution was stirred. The resulting SGF media were used fresh for each experiment.
Test compounds were dissolved in DMSO stock to 1 mM. An aliquot of the DMSO stock solution was removed and diluted in the SGF Media in 15 mL falcon tubes to generate a total compound concentration of 1 μM. A 1 mL aliquot was immediately removed and diluted once with 1 volume of acetonitrile for T0 timepoint. The mixture was sealed and mixed at 37° C. in an incubator. Aliquots (1 mL) were removed at regular intervals and immediately quenched by the addition of 1 volume of acetonitrile. The resulting samples were analyzed by LC/MS to determine degradation rates in SGF.

Which “Assay 1 (SGF) (% Remaining @ 1 hour)” value does the source give for CC(=O)Oc1cc(OC(C)=O)c2c(=O)c(OC(C)=O)c(-c3ccc(OC(C)=O)c(OC(C)=O)c3)oc2c1 [Compound 4, [2-acetoxy-4-(3,5,7-triacetoxy-4-oxo-chromen-2-yl)phenyl] acetate] here?
The value was “C (>75% of the tested compound remaining)”.

Which “Assay 1 (SGF) (% Remaining @ 1 hour)” value does the source give for CC(=O)Oc1cc(OC(C)=O)c2c(=O)c(OC(C)=O)c(-c3cc(OC(C)=O)c(OC(C)=O)c(OC(C)=O)c3)oc2c1 [Compound 11, [3,5-diacetoxy-4-oxo-2-(3,4,5-triacetoxyphenyl)chromen-7-yl] acetate] here?
The value was “C (>75% of the tested compound remaining)”.

Which “Assay 1 (SGF) (% Remaining @ 1 hour)” value does the source give for CCCC(=O)OC[C@H]1O[C@@H](Oc2ccccc2C(=O)O)[C@H](OC(=O)CCC)[C@@H](OC(=O)CCC)[C@@H]1OC(=O)CCC [Compound 28, 2-(((2S,3R,4S,5R,6R)-3,4,5-tris(butyryloxy)-6-((butyryloxy)methyl)tetrahydro-2H-pyran-2-yl)oxy)benzoic acid] here?
Its value is “C (>75% of the tested compound remaining)”.

With CCC(=O)O[C@@H]1[C@@H](OC(=O)CC)[C@@H](OC(=O)CCc2c[nH]c3ccccc23)OC[C@H]1OC(=O)CC [Compound 75, (2R,3R,4S,5R)-3,4,5-tris(propanoyloxy)oxan-2-yl 3-(1H-indol-3-yl)propanoate] as the compound, how does the “Assay 1 (SGF) (% Remaining @ 1 hour)” value read?
The value was “C (>75% of the tested compound remaining)”.

With CCC(=O)OC[C@H]1O[C@@H](OC(=O)/C=C/c2c[nH]c3ccccc23)[C@H](OC(=O)CC)[C@@H](OC(=O)CC)[C@@H]1OC(=O)CC [Compound 95, (2S,3R,4S,5R,6R)-3,4,5-tris(propanoyloxy)-6-[(propanoyloxy)methyl]oxan-2-yl (2E)-3-(1H-indol-3-yl)prop-2-enoate] as the compound, how does the “Assay 1 (SGF) (% Remaining @ 1 hour)” value read?
The value was “B (25-75% of the tested compound remaining)”.

With CCC(=O)O[C@H]1[C@H](OC(=O)CC)[C@H](OC(=O)/C=C/c2c[nH]c3ccccc23)O[C@@H](C)[C@H]1OC(=O)CC [Compound 116, (2S,3S,4R,5R,6S)-6-methyl-3,4,5-tris(propanoyloxy)oxan-2-yl (2E)-3-(1H-indol-3-yl)prop-2-enoate] as the compound, how does the “Assay 1 (SGF) (% Remaining @ 1 hour)” value read?
The value was “C (>75% of the tested compound remaining)”.

Which “Assay 1 (SGF) (% Remaining @ 1 hour)” value does the source give for CCC(=O)O[C@@H]1OC[C@H](OC(=O)CC)[C@H](OC(=O)CC)[C@H]1OC(=O)CC [Compound 128, (2S,3R,4S,5S)-3,4,5-tris(propanoyloxy)oxan-2-yl propanoate] here?
Its value is “C (>75% of the tested compound remaining)”.

For CCC(=O)O[C@@H]1[C@@H](OC(=O)CC)[C@H](OC(=O)CCc2c[nH]c3ccccc23)OC[C@H]1OC(=O)CC [Compound 132, (2S,3R,4S,5R)-3,4,5-tris(propanoyloxy)oxan-2-yl 3-(1H-indol-3-yl)propanoate], which “Assay 1 (SGF) (% Remaining @ 1 hour)” value is on record?
The value was “C (>75% of the tested compound remaining)”.

Which “Assay 1 (SGF) (% Remaining @ 1 hour)” value does the source give for CCC(=O)Oc1cc(OC(=O)CC)c2c(=O)c(OC(=O)CC)c(-c3ccc(OC(=O)CC)c(OC(=O)CC)c3)oc2c1 [Compound 174, [4-[4-oxo-3,5,7-tri(propanoyloxy)chromen-2-yl]-2-propanoyloxy-phenyl] propanoate] here?
Its value is “C (>75% of the tested compound remaining)”.

From US12115178B2, “Acylated active agents and methods of their use for the treatment of autoimmune disorders” (Flagship Pioneering Innovations V, Inc., priority 2018, dated 2024)
